Laboratory results from patent US20150191469A1, “COMPOUNDS AND METHODS FOR TREATING HIV” (priority 2012, published 2015).
pIC50: −log10 of the molar value.

tested on: HIV; test: MT4 assay: antiviral HIV activity (cell protection, cell titer glo readout at 96 hours); assay type: cell-based; details: Human immunodeficiency virus 1, MT4, 96 h, MT4 cells, cell titer glo readout at 96 hours, 10 point dose response; read-out: HIV MT4 Assay IC50
In short: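 MT-4 cells infected with HIV, with inhibition readout by CellTiter-Glo luminescence at 96 h relative to no-compound control. Cytotoxicity measured in parallel under the same conditions. IC50 from a 10-point, 3-4-fold dilution series spanning >1000-fold, fitted with a four-parameter logistic equation.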

SMILES	pIC50
Cc1nc2c(cc(C(=O)N3CCN(c4ccncc4)CC3)n2C)c(-c2cc(F)c3c(c2C)CCCO3)c1[C@H](OC(C)(C)C)C(=O)O [Example 169]	5.91
Cc1nc2c(cc(C(=O)N3CCC(c4ccccc4)CC3)n2C)c(-c2cc(F)c3c(c2C)CCCO3)c1[C@H](OC(C)(C)C)C(=O)O [Example 170]	8.38
Cc1nc2c(cc(C(=O)N3CCC(c4ccncc4)CC3)n2C)c(-c2cc(F)c3c(c2C)CCCO3)c1[C@H](OC(C)(C)C)C(=O)O [Example 171]	7.49
Cc1nc2c(cc(C(=O)N3CCN(c4ccccc4)CC3)n2C)c(-c2cc(F)c3c(c2C)CCCO3)c1[C@H](OC(C)(C)C)C(=O)O [Example 172]	8.23
Cc1nc2c(cc(C(=O)N3CCN(C)CC3)n2C)c(-c2cc(F)c3c(c2C)CCCO3)c1[C@H](OC(C)(C)C)C(=O)O [Example 173]	6.45
Cc1nc2c(cc(C(=O)N3CCc4ccccc4C3)n2C)c(-c2cc(F)c3c(c2C)CCCO3)c1[C@H](OC(C)(C)C)C(=O)O [Example 174]	8.44
Cc1nc2c(cc(C(=O)N3CCC(c4ccc(C#N)cc4)CC3)n2C)c(-c2cc(F)c3c(c2C)CCCO3)c1[C@H](OC(C)(C)C)C(=O)O [Example 175]	8.32
Cc1nc2c(cc(C(=O)N3CCC(C)CC3)n2C)c(-c2cc(F)c3c(c2C)CCCO3)c1[C@H](OC(C)(C)C)C(=O)O [Example 176]	7.59
Cc1nc2c(cc(C(=O)N3CCC(c4cccc(C#N)c4)CC3)n2C)c(-c2cc(F)c3c(c2C)CCCO3)c1[C@H](OC(C)(C)C)C(=O)O [Example 177]	8.33
Cc1nc2c(cc(C(=O)N3CCC(c4ccc(C(N)=O)cc4)CC3)n2C)c(-c2cc(F)c3c(c2C)CCCO3)c1[C@H](OC(C)(C)C)C(=O)O [Example 178]	6.76
Cc1nc2c(cc(C(=O)N3CCC[C@H]3C(=O)N(C)c3ccc4c(cnn4C)c3)n2C)c(-c2cc(F)c3c(c2C)CCCO3)c1[C@H](OC(C)(C)C)C(=O)O [Example 179]	6.07
Cc1nc2c(cc(C(=O)N3CCN(S(C)(=O)=O)CC3)n2C)c(-c2cc(F)c3c(c2C)CCCO3)c1[C@H](OC(C)(C)C)C(=O)O [Example 180]	5.72
Cc1nc2c(cc(C(=O)N3CCC(F)(F)CC3)n2C)c(-c2cc(F)c3c(c2C)CCCO3)c1[C@H](OC(C)(C)C)C(=O)O [Example 181]	7.38
Cc1nc2c(cc(C(=O)N3CCN4CCCC4C3)n2C)c(-c2cc(F)c3c(c2C)CCCO3)c1[C@H](OC(C)(C)C)C(=O)O (stereo partly shown) [Example 182]	6.88
Cc1nc2c(cc(C(=O)N3CCc4ccccc43)n2C)c(-c2cc(F)c3c(c2C)CCCO3)c1[C@H](OC(C)(C)C)C(=O)O [Example 183]	7.47
Cc1nc2c(cc(C(=O)N3Cc4ccccc4C3)n2C)c(-c2cc(F)c3c(c2C)CCCO3)c1[C@H](OC(C)(C)C)C(=O)O [Example 184]	7.38
Cc1nc2c(cc(-c3ccn(C4CN(C(=O)OC(C)(C)C)C4)n3)n2C)c(-c2cc(F)c3c(c2C)CCCO3)c1[C@H](OC(C)(C)C)C(=O)O [Example 185]	7.49
Cc1nc2c(cc(-c3cnn(CC4CN(C(=O)OC(C)(C)C)C4)c3)n2C)c(-c2cc(F)c3c(c2C)CCCO3)c1[C@H](OC(C)(C)C)C(=O)O [Example 186]	7.39
Cc1nc2c(cc(-c3ccn(C4CN(C5CCOCC5)C4)n3)n2C)c(-c2cc(F)c3c(c2C)CCCO3)c1[C@H](OC(C)(C)C)C(=O)O [Example 187]	7.58
Cc1nc2c(cc(C(=O)N3C[C@@H]4CC[C@H]3CN(C3COC3)C4)n2C)c(-c2cc(F)c3c(c2C)CCCO3)c1[C@H](OC(C)(C)C)C(=O)O [Example 188]	7.06
Cc1nc2c(cc(C(=O)N3CC4CN(C5COC5)CC4C3)n2C)c(-c2cc(F)c3c(c2C)CCCO3)c1[C@H](OC(C)(C)C)C(=O)O (stereo partly shown) [Example 189]	5.92
Cc1nc2c(cc(C(=O)N[C@H](C)c3ccccc3)n2C)c(-c2cc(F)c3c(c2C)CCCO3)c1[C@H](OC(C)(C)C)C(=O)O [Example 190]	7.85
Cc1nc2c(cc(C(=O)N3CCC(c4c[nH]c5ccccc45)CC3)n2C)c(-c2cc(F)c3c(c2C)CCCO3)c1[C@H](OC(C)(C)C)C(=O)O [Example 191]	8.31
Cc1nc2c(cc(C(=O)N(C)Cc3ccccc3)n2C)c(-c2cc(F)c3c(c2C)CCCO3)c1[C@H](OC(C)(C)C)C(=O)O [Example 192]	7.78
Cc1nc2c(cc(C(=O)N3CCC4(CCCC4)CC3)n2C)c(-c2cc(F)c3c(c2C)CCCO3)c1[C@H](OC(C)(C)C)C(=O)O [Example 193]	7.91
Cc1nc2c(cc(C(=O)N3CC(c4ccccc4)C3)n2C)c(-c2cc(F)c3c(c2C)CCCO3)c1[C@H](OC(C)(C)C)C(=O)O [Example 194]	8.82
Cc1nc2c(cc(C(=O)NC(C)(C)c3ccccc3)n2C)c(-c2cc(F)c3c(c2C)CCCO3)c1[C@H](OC(C)(C)C)C(=O)O [Example 195]	7.59
Cc1nc2c(cc(C(=O)N3CCN(C(C)c4ccccc4)CC3)n2C)c(-c2cc(F)c3c(c2C)CCCO3)c1[C@H](OC(C)(C)C)C(=O)O (stereo partly shown) [Example 196]	7.91

SMILES	pIC50
CC(=O)N1CCCN(C(=O)c2cc3c(-c4cc(F)c5c(c4C)CCCO5)c([C@H](OC(C)(C)C)C(=O)O)c(C)nc3n2C)CC1 [Example 197]	5.17
Cc1nc2c(cc(C(=O)N3CCN(C(=O)OCc4ccccc4)CC3)n2C)c(-c2cc(F)c3c(c2C)CCCO3)c1[C@H](OC(C)(C)C)C(=O)O [Example 198]	7.58
Cc1nc2c(cc(C(=O)N3CCN(c4ncccn4)CC3)n2C)c(-c2cc(F)c3c(c2C)CCCO3)c1[C@H](OC(C)(C)C)C(=O)O [Example 199]	7.56
Cc1nc2c(cc(C(=O)N3CCC4(CC3)CC(Cc3cccnc3)C(=O)O4)n2C)c(-c2cc(F)c3c(c2C)CCCO3)c1[C@H](OC(C)(C)C)C(=O)O (stereo partly shown) [Example 200]	5.09
Cc1nc2c(cc(C(=O)N3CCN(C(=O)C4CCCCC4)CC3)n2C)c(-c2cc(F)c3c(c2C)CCCO3)c1[C@H](OC(C)(C)C)C(=O)O [Example 201]	7.18
Cc1nc2c(cc(C(=O)N(CCC(C)C)CCC(C)C)n2C)c(-c2cc(F)c3c(c2C)CCCO3)c1[C@H](OC(C)(C)C)C(=O)O [Example 202]	7.03
Cc1nc2c(cc(C(=O)N3CCN(CC(=O)N4CCCC4)CC3)n2C)c(-c2cc(F)c3c(c2C)CCCO3)c1[C@H](OC(C)(C)C)C(=O)O [Example 203]	5.22
Cc1nc2c(cc(C(=O)N3CCN(CC(=O)N4CCOCC4)CC3)n2C)c(-c2cc(F)c3c(c2C)CCCO3)c1[C@H](OC(C)(C)C)C(=O)O [Example 204]	4.94
Cc1nc2c(cc(C(=O)N3CCOC(C)(C(=O)NC4CCCC4)C3)n2C)c(-c2cc(F)c3c(c2C)CCCO3)c1[C@H](OC(C)(C)C)C(=O)O (stereo partly shown) [Example 205]	6.43
Cc1nc2c(cc(C(=O)N3CCCN(c4nccs4)CC3)n2C)c(-c2cc(F)c3c(c2C)CCCO3)c1[C@H](OC(C)(C)C)C(=O)O [Example 206]	6.90
CCN(CC)C(=O)C1CCCN(C(=O)c2cc3c(-c4cc(F)c5c(c4C)CCCO5)c([C@H](OC(C)(C)C)C(=O)O)c(C)nc3n2C)C1 (stereo partly shown) [Example 207]	6.51
Cc1nc2c(cc(C(=O)N3CCN(c4nccs4)CC3)n2C)c(-c2cc(F)c3c(c2C)CCCO3)c1[C@H](OC(C)(C)C)C(=O)O [Example 208]	7.40
Cc1nc2c(cc(C(=O)NCc3ccccc3)n2C)c(-c2cc(F)c3c(c2C)CCCO3)c1[C@H](OC(C)(C)C)C(=O)O [Example 209]	8.03
Cc1nc2c(cc(C(=O)N[C@@H](C)c3ccccc3)n2C)c(-c2cc(F)c3c(c2C)CCCO3)c1[C@H](OC(C)(C)C)C(=O)O [Example 210]	8.30
Cc1cnc(CNC(=O)c2cc3c(-c4cc(F)c5c(c4C)CCCO5)c([C@H](OC(C)(C)C)C(=O)O)c(C)nc3n2C)cn1 [Example 211]	6.92
Cc1nc2c(cc(C(=O)NCCc3ccccc3)n2C)c(-c2cc(F)c3c(c2C)CCCO3)c1[C@H](OC(C)(C)C)C(=O)O [Example 212]	7.54
Cc1nc2c(cc(C(=O)NCCOc3ccccc3)n2C)c(-c2cc(F)c3c(c2C)CCCO3)c1[C@H](OC(C)(C)C)C(=O)O [Example 213]	8.41
Cc1nc2c(cc(C(=O)NC[C@H](C)c3ccccc3)n2C)c(-c2cc(F)c3c(c2C)CCCO3)c1[C@H](OC(C)(C)C)C(=O)O [Example 214]	7.35
Cc1nc2c(cc(C(=O)NC[C@@H](C)c3ccccc3)n2C)c(-c2cc(F)c3c(c2C)CCCO3)c1[C@H](OC(C)(C)C)C(=O)O [Example 215]	7.52
COc1ccc([C@@H](C)NC(=O)c2cc3c(-c4cc(F)c5c(c4C)CCCO5)c([C@H](OC(C)(C)C)C(=O)O)c(C)nc3n2C)cc1 [Example 216]	7.38
CC(=O)NC1(c2ccccc2)CCN(C(=O)c2cc3c(-c4cc(F)c5c(c4C)CCCO5)c([C@H](OC(C)(C)C)C(=O)O)c(C)nc3n2C)CC1 [Example 217]	5.47
CC1=NC2(CCN(C(=O)c3cc4c(-c5cc(F)c6c(c5C)CCCO6)c([C@H](OC(C)(C)C)C(=O)O)c(C)nc4n3C)CC2)N=C1c1ccccc1 [Example 218]	7.33
Cc1nc2c(cc(C(=O)N3CCN(CC(=O)N(C)c4ccccc4)CC3)n2C)c(-c2cc(F)c3c(c2C)CCCO3)c1[C@H](OC(C)(C)C)C(=O)O [Example 219]	6.09
Cc1nc2c(cc(C(=O)N3CCN(C(=O)N(C)C)CC3)n2C)c(-c2cc(F)c3c(c2C)CCCO3)c1[C@H](OC(C)(C)C)C(=O)O [Example 220]	5.75
Cc1nc2c(cc(C(=O)N3CCC4(CC3)C(=O)NC(=O)N4C)n2C)c(-c2cc(F)c3c(c2C)CCCO3)c1[C@H](OC(C)(C)C)C(=O)O [Example 221]	4.75
Cc1nc2c(cc(C(=O)N3[C@@H]4CC[C@H]3CC(N3CCOCC3)C4)n2C)c(-c2cc(F)c3c(c2C)CCCO3)c1[C@H](OC(C)(C)C)C(=O)O (stereo partly shown) [Example 222]	6.42
Cc1nc2c(cc(C(=O)N3CCN(C4CCOCC4)C[C@H]3C)n2C)c(-c2cc(F)c3c(c2C)CCCO3)c1[C@H](OC(C)(C)C)C(=O)O [Example 223]	6.92
